According to ChEMBL document CHEMBL3885881, “DrugMatrix”:

Species on record: Rattus norvegicus
Assay: DrugMatrix - Regimen: Daily Repeat
Assay type: toxicity, organism-based, Sprague-Dawley
Parameters: regimen Daily Repeat, gender Male, age 6-8 weeks
Settings: in vivo, sc, route subcutaneous, […]; for ABSOLUTE BASOPHIL / ABSOLUTE EOSINOPHIL / ABSOLUTE LYMPHOCYTE / ABSOLUTE MONOCYTE / ABSOLUTE SEGMENTED NEUTROPHIL / BASOPHIL / EOSINOPHIL / ERYTHROCYTE COUNT / HEMATOCRIT / HEMOGLOBIN / LEUKOCYTE COUNT / LYMPHOCYTE / MEAN CORPUSCULAR HEMOGLOBIN / MEAN CORPUSCULAR HEMOGLOBIN CONCENTRATION / MEAN CORPUSCULAR VOLUME / MONOCYTE / NEUTROPHIL / NUCLEATED RED BLOOD CELLS / PLATELET COUNT: tissue Blood; for ALANINE AMINOTRANSFERASE / ALBUMIN / ALKALINE PHOSPHATASE / ASPARTATE AMINOTRANSFERASE / BLOOD UREA NITROGEN / CARBON DIOXIDE / CHLORIDE / CHOLESTEROL / CREATINE PHOSPHOKINASE / CREATININE / GLUCOSE / LACTATE DEHYDROGENASE / LIPASE / PHOSPHORUS / POTASSIUM / SODIUM / TOTAL BILIRUBIN / TOTAL PROTEIN / URIC ACID: tissue Plasma
[1] = 0 mg/kg, 72 h, dose level Control, time 3 day
[2] = 0 mg/kg, 120 h, dose level Control, time 5 day
[3] = 18 mg/kg, 72 h, dose level High, time 3 day

CN(C)c1ccc(C(=C2C=CC(=[N+](C)C)C=C2)c2ccc(N(C)C)cc2)cc1.[Cl-] [GENTIAN VIOLET]
ABSOLUTE BASOPHIL [1]: 0 CELLS/uL | ABSOLUTE EOSINOPHIL [1]: 92.33 CELLS/uL | ABSOLUTE LYMPHOCYTE [1]: 12247.5 CELLS/uL | ABSOLUTE MONOCYTE [1]: 389.67 CELLS/uL | ABSOLUTE SEGMENTED NEUTROPHIL [1]: 1320.5 CELLS/uL | BASOPHIL [1]: 0% | EOSINOPHIL [1]: 0.67% | ERYTHROCYTE COUNT [1]: 5.45 x10E6/uL | HEMATOCRIT [1]: 34.85% | HEMOGLOBIN [1]: 12.97 G/DL | LEUKOCYTE COUNT [1]: 14.05 x10E3/uL | LYMPHOCYTE [1]: 87.33% | MEAN CORPUSCULAR HEMOGLOBIN [1]: 23.78 pg | MEAN CORPUSCULAR HEMOGLOBIN CONCENTRATION [1]: 37.22 G/DL | MEAN CORPUSCULAR VOLUME [1]: 63.93 fL | MONOCYTE [1]: 2.67% | NEUTROPHIL [1]: 9.33% | NUCLEATED RED BLOOD CELLS [1]: 0 /100WBC | PLATELET COUNT [1]: 1174 x10E3/uL | ALANINE AMINOTRANSFERASE [1]: 48.83 u/L | ALBUMIN [1]: 4.23 G/DL | ALKALINE PHOSPHATASE [1]: 351.5 u/L | ASPARTATE AMINOTRANSFERASE [1]: 90 u/L | BLOOD UREA NITROGEN [1]: 15.33 mg/dL | CARBON DIOXIDE [1]: 23 mmol/L | CHLORIDE [1]: 103.5 MEQ/L | CHOLESTEROL [1]: 70.5 mg/dL | CREATINE PHOSPHOKINASE [1]: 651.83 u/L | CREATININE [1]: 0.22 mg/dL | GLUCOSE [1]: 180.67 mg/dL | LACTATE DEHYDROGENASE [1]: 165 u/L | LIPASE [1]: 9.33 u/L | PHOSPHORUS [1]: 12.03 mg/dL | POTASSIUM [1]: 6.17 MEQ/L | SODIUM [1]: 142.62 MEQ/L | TOTAL BILIRUBIN [1]: 0.2 mg/dL | TOTAL PROTEIN [1]: 5.73 G/DL | URIC ACID [1]: 1.77 mg/dL | ABSOLUTE BASOPHIL [2]: 0 CELLS/uL | ABSOLUTE EOSINOPHIL [2]: 0 CELLS/uL | ABSOLUTE LYMPHOCYTE [2]: 12736.67 CELLS/uL | ABSOLUTE MONOCYTE [2]: 253.5 CELLS/uL | ABSOLUTE SEGMENTED NEUTROPHIL [2]: 1193.17 CELLS/uL | BASOPHIL [2]: 0% | EOSINOPHIL [2]: 0% | ERYTHROCYTE COUNT [2]: 5.72 x10E6/uL | HEMATOCRIT [2]: 36.05% | HEMOGLOBIN [2]: 13.62 G/DL | LEUKOCYTE COUNT [2]: 14.18 x10E3/uL | LYMPHOCYTE [2]: 89.33% | MEAN CORPUSCULAR HEMOGLOBIN [2]: 23.83 pg | MEAN CORPUSCULAR HEMOGLOBIN CONCENTRATION [2]: 37.8 G/DL | MEAN CORPUSCULAR VOLUME [2]: 63.05 fL | MONOCYTE [2]: 1.83% | NEUTROPHIL [2]: 8.83% | NUCLEATED RED BLOOD CELLS [2]: 0 /100WBC | PLATELET COUNT [2]: 1322.17 x10E3/uL | ALANINE AMINOTRANSFERASE [2]: 48.83 u/L | ALBUMIN [2]: 4.27 G/DL | ALKALINE PHOSPHATASE [2]: 295.17 u/L | ASPARTATE AMINOTRANSFERASE [2]: 75.83 u/L | BLOOD UREA NITROGEN [2]: 15.5 mg/dL | CARBON DIOXIDE [2]: 30.5 mmol/L | CHLORIDE [2]: 102.33 MEQ/L | CHOLESTEROL [2]: 76.17 mg/dL | CREATINE PHOSPHOKINASE [2]: 205.5 u/L | CREATININE [2]: 0.2 mg/dL | GLUCOSE [2]: 149.67 mg/dL | LACTATE DEHYDROGENASE [2]: 124.5 u/L | LIPASE [2]: 10 u/L | PHOSPHORUS [2]: 10.93 mg/dL | POTASSIUM [2]: 6.59 MEQ/L | SODIUM [2]: 143.1 MEQ/L | TOTAL BILIRUBIN [2]: 0.2 mg/dL | TOTAL PROTEIN [2]: 6.05 G/DL | URIC ACID [2]: 1.45 mg/dL | ABSOLUTE BASOPHIL [3]: 0 CELLS/uL | ABSOLUTE EOSINOPHIL [3]: 0 CELLS/uL | ABSOLUTE LYMPHOCYTE [3]: 12052.33 CELLS/uL | ABSOLUTE MONOCYTE [3]: 236.33 CELLS/uL | ABSOLUTE SEGMENTED NEUTROPHIL [3]: 1544.67 CELLS/uL | BASOPHIL [3]: 0% | EOSINOPHIL [3]: 0% | ERYTHROCYTE COUNT [3]: 5.45 x10E6/uL | HEMATOCRIT [3]: 33.5% | HEMOGLOBIN [3]: 12.27 G/DL | LEUKOCYTE COUNT [3]: 13.83 x10E3/uL | LYMPHOCYTE [3]: 87% | MEAN CORPUSCULAR HEMOGLOBIN [3]: 22.5 pg | MEAN CORPUSCULAR HEMOGLOBIN CONCENTRATION [3]: 36.67 G/DL | MEAN CORPUSCULAR VOLUME [3]: 61.5 fL | MONOCYTE [3]: 1.67% | NEUTROPHIL [3]: 11.33% | NUCLEATED RED BLOOD CELLS [3]: 0 /100WBC | PLATELET COUNT [3]: 1084 x10E3/uL | ALANINE AMINOTRANSFERASE [3]: 34.67 u/L | ALBUMIN [3]: 2.67 G/DL | ALKALINE PHOSPHATASE [3]: 220 u/L | ASPARTATE AMINOTRANSFERASE [3]: 68.67 u/L | BLOOD UREA NITROGEN [3]: 12 mg/dL | CARBON DIOXIDE [3]: 19 mmol/L | CHLORIDE [3]: 103.5 MEQ/L | CHOLESTEROL [3]: 66.33 mg/dL | CREATINE PHOSPHOKINASE [3]: 157.33 u/L | CREATININE [3]: 0.17 mg/dL | GLUCOSE [3]: 122.33 mg/dL | LACTATE DEHYDROGENASE [3]: 148 u/L | LIPASE [3]: 7.33 u/L | PHOSPHORUS [3]: 8.5 mg/dL | POTASSIUM [3]: 6.06 MEQ/L | SODIUM [3]: 145.95 MEQ/L | TOTAL BILIRUBIN [3]: 0.13 mg/dL | TOTAL PROTEIN [3]: 4.7 G/DL | URIC ACID [3]: 1.1 mg/dL
